Read-outs that look alike come from different tables or passages of the source.
Legend:
[1] = test system: guinea pig bronchioles constricted by carbachol; test: Bronchodilator Test Method II, in vitro perfused guinea pig lung
Method: In this method bronchodilator activity in vitro was determined by testing the effect of graded doses of the test compounds on guinea pig bronchioles constricted by carbachol, using the technique reported by Sollman and von Oettingen, Proc. Soc, Exp. Biol. Med., 25,692 (1928) as modified by Tainter, Pedden, and James, J. Pharm. Exp. Ther., 51, 371 (1934) and by Luduena, von Euler, Tullar, and Lands, Arch. intern. Pharmacol., III, 392 (1957).

[2] = test system: carbachol- or histamine-induced bronchoconstriction; test: Bronchodilator Test Method I, anesthetized dog, intravenous activity; type: in vivo; settings: Canis lupus familiaris, read-out: Bronchodilatation; for inhibition in vivo at 0.0028 mg/kg: 2.8 mcg/kg i.v.; for inhibition in vivo at 0.0056 mg/kg: 5.6 mcg/kg i.v.; for inhibition in vivo at 0.03 mg/kg: 30 mcg/kg i.v.; for inhibition in vivo at 0.24 mg/kg: 240 mcg/kg i.v.; for inhibition in vivo at 0.008 mg/kg: 8 mcg/kg i.v.; for inhibition in vivo at 0.032 mg/kg: 32 mcg/kg i.v.; for inhibition in vivo at 0.128 mg/kg: 128 mcg/kg i.v.
Method: Bronchodilator activity was tested in anesthetized dogs (Test Method I) and in vitro on the perfused guinea pig lung (Test Method II), using the following pharmacological test procedures
(§1) Male and female dogs weighing 9-18 kg. each were anesthetized with pentobarbital sodium (30 mg./kg. i.v.). Each animal, with thorax opened at the midsternum, was maintained under artificial ventilation using a constant volume pump (250 ml./stroke; 10 to 12 strokes per minute) attached to the tracheal cannula. The flow of air was controlled by a glass or plastic valve which closed and opened respectively on inflow and outflow of the air to and from the tracheal cannula. Bronchoconstriction and/or bronchodilatation were measured from changes in the basal airway pressure reflected by a transducer attached to the sidearm of the cannula relayed to a polygraph.
(§2) Control bronchoconstrictions were induced by intravenous injections of carbachol (choline chloride carbamate) in doses ranging from 4 to 6 micrograms per kilogram or histamine diphosphate in doses ranging from 35 to 45 micrograms per kilogram.
Solutions of the test compounds were prepared in distilled water or in saline (for infusion). […] These solutions were then tested for bronchodilator activity in three ways, viz. (1) by mixing a graded dose of test compound with the constant does of carbachol or histamine in a syringe and injecting the mixture into the femoral vein of the dog, (2) by producing the bronchoconstriction first and injecting the test compound at the time of maximum constriction, and (3) by injecting the test compound first followed by carbachol or histamine in 1-10 minutes. Injections were repeated at 20-30 minutes. Bronchodilator values were obtained by measuring the areas under the response polygraph tracings (the first 5 munite period) of carbachol or histamine controls and of the experimentals using a planimeter. Decrease in the area thus measured was expressed as a percent bronchodilatation in reference to the area of control carbachol or histamine constriction. The mean bronchodilatations (the reductions in constrictions) were plotted against the doses administered and the mean effective dose (ED50) was estimated in micrograms/kilogram from the does-response curves. Blood pressure recording was taken from the femoral artery using an arterial transducer relayed to a polygraph.

[3] = test system: carbachol- or histamine-induced bronchoconstriction; test: Bronchodilator Test Method I, anesthetized dog, intraduodenal activity; type: in vivo; settings: Canis lupus familiaris, read-out: Bronchodilation; for inhibition in vivo at 0.032 mg/kg: 32 mcg/kg (salt) intraduodenal; for inhibition in vivo at 0.128 mg/kg: 128 mcg/kg (salt) intraduodenal
Method: as §1
as §2, with “kilogram. In the majority of test animals, the above doses of constrictor agents produced a 100-200 percent increase in the normal airway pressure or amplitude.” for “kilogram.”
Injections were repeated at 20-30 minutes.
In intraduodenal studies, in the dog prepared for bronchodilation measurements, the duodenal segment of the small intestine was made easily accessible through a small mid-line incision in the abdomen. The test solution was injected into the duodenum using a fine needle. Commencing 5 minutes after medication, the degree and duration of bronchodilation were tested by injecting a control dose of carbachol or histamine at intervals of 30-60 minutes until the recovery or near-recovery was apparent. In some dogs showing an early recovery, a reference drug was also tested in the same dog 1.5-2 hours after the first medicine.

## 3,4-bis(p-toluyloxy)-alpha-[1-(tert-butylaminomethyl)propyl]benzyl alcohol hydrochloride [Example 144]
[1]; dose 500 mcg (base)
  Duration, Mean: 83 ± 26.8 min

## CC(C)C(=O)Oc1ccc(C(O)CNC(C)(C)C)cc1OC(=O)C(C)C.Cl (stereo not drawn) [Example 2, 3,4-bis(isobutyryloxy)-alpha-(tert-butylaminomethyl)benzyl alcohol hydrochloride]
[1]; carbachol (Doryl) 1:5 million
  ED50: 0.28 µg (base)
[1]; dose 0.5 mcg (base)
  Duration, Mean: 9 ± 1.1 min

## CC(C)(C)NCC(O)c1ccc(OC(=O)C2(C)CC2)c(OC(=O)C2(C)CC2)c1.Cl (stereo not drawn) [Example 13, 3,4-bis(1-methylcyclopropanecarbonyloxy)-alpha-(tert-butylaminomethyl)benzyl alcohol hydrochloride]
[2]; 2 min, 2 min
  inhibition in vivo at 0.0028 mg/kg: 52%
  inhibition in vivo at 0.0056 mg/kg: 69%
[2]; 0.5 h, 30 min
  inhibition in vivo at 0.0028 mg/kg: 48%
  inhibition in vivo at 0.0056 mg/kg: 34%
[2]; 1 h, 60 min
  inhibition in vivo at 0.0028 mg/kg: 0%
  inhibition in vivo at 0.0056 mg/kg: 10%
[1]; carbachol (Doryl) 1:5 million
  ED50: 0.45 µg (base)
[1]; dose 0.79 mcg (base)
  Duration, Mean: 15 ± 1.7 min

## CC(C)(C)NCC(O)c1ccc(OC(=O)C(C)(C)C)c(O)c1 (stereo not drawn) [Example 59, 3-hydroxy-4-(pivalyloxy)-alpha-(tert-butylaminomethyl)benzyl alcohol methanesulfonate]
[1]; carbachol (Doryl) 1:5 million
  ED50: 1.2 µg (base)
[1]; dose 3.2 mcg (base)
  Duration, Mean: 25 ± 5.6 min

## Cc1ccc(C(=O)Oc2ccc(C(O)CNC(C)C)cc2OC(=O)c2ccc(C)cc2)cc1 (stereo not drawn) [Example 89, 3,4-bis(p-toluyloxy)-alpha-(isopropylaminomethyl)benzyl alcohol]
[1]; carbachol (Doryl) 1:5 million
  ED50: 6.4 µg (base)
[1]; dose 15 mcg (base)
  Duration, Mean: 125 ± 31 min

## CCC(NC1CCCC1)C(O)c1ccc(OC(=O)CC(C)C)c(OC(=O)CC(C)C)c1.Cl (stereo not drawn) [Example 138, 3,4-bis(isovaleryloxy)-alpha-[1-(cyclopentylamino)propyl]benzylalcohol hydrochloride]
[2]; 5 min, 5 min
  inhibition in vivo at 0.03 mg/kg: 38%
  inhibition in vivo at 0.24 mg/kg: 49%
[2]; 0.5 h, 30 min
  inhibition in vivo at 0.03 mg/kg: 0%
  inhibition in vivo at 0.24 mg/kg: 62%
[2]; 1 h, 60 min
  inhibition in vivo at 0.24 mg/kg: 42%
[2]; 2 h, 120 min
  inhibition in vivo at 0.24 mg/kg: 46%
[1]; carbachol (Doryl) 1:5 million
  ED50: 0.46 µg (base)
[1]; dose 1.5 mcg (base)
  Duration, Mean: 25.4 ± 3.5 min

## COc1ccc(C(=O)Oc2ccc(C(O)CNC(C)(C)C)cc2OC(=O)c2ccccc2)cc1 (stereo not drawn) [Example 143, 3-benzoyloxy-4-(p-anisoyloxy)-alpha-(tert-butylaminomethyl)benzyl alcohol]
[1]; Doryl conc. 1:10 million
  ED50: 1.53 µg (base)
[1]; dose 2 mcg (base), Doryl conc. 1:10 million
  Duration, Mean: 29.2 ± 10.2 min

## CC(=O)OCc1cc(C(O)CNC(C)(C)C)ccc1OC(=O)C12CC3CC(CC(C3)C1)C2 (stereo not drawn) [Example 152, 3-(acetoxymethyl)-4-(1-adamantanecarbonyloxy)-alpha-(tert-butylaminomethyl)benzyl alcohol methanesulfonate]
[2]; 5 min, 5 min
  inhibition in vivo at 0.008 mg/kg: 44%
  inhibition in vivo at 0.032 mg/kg: 77%
  inhibition in vivo at 0.128 mg/kg: 97%
[2]; 0.5 h, 30 min
  inhibition in vivo at 0.008 mg/kg: 39%
  inhibition in vivo at 0.032 mg/kg: 78%
  inhibition in vivo at 0.128 mg/kg: 92%
[2]; 1 h, 60 min
  inhibition in vivo at 0.008 mg/kg: 50%
  inhibition in vivo at 0.032 mg/kg: 75%
  inhibition in vivo at 0.128 mg/kg: 93%
[2]; 2 h, 120 min
  inhibition in vivo at 0.008 mg/kg: 33%
  inhibition in vivo at 0.032 mg/kg: 70%
  inhibition in vivo at 0.128 mg/kg: 87%
[2]; 3 h, 180 min
  inhibition in vivo at 0.008 mg/kg: 39%
  inhibition in vivo at 0.032 mg/kg: 63%
  inhibition in vivo at 0.128 mg/kg: 89%
[2]; 4 h, 240 min
  inhibition in vivo at 0.008 mg/kg: 39%
  inhibition in vivo at 0.032 mg/kg: 52%
  inhibition in vivo at 0.128 mg/kg: 88%
[2]; 4.5 h, 270 min
  inhibition in vivo at 0.008 mg/kg: 0%
  inhibition in vivo at 0.032 mg/kg: 45%
  inhibition in vivo at 0.128 mg/kg: 82%
[3]; 5 min, 5 min
  inhibition in vivo at 0.032 mg/kg: 6%
  inhibition in vivo at 0.128 mg/kg: 6%
[3]; 0.5 h, 30 min
  inhibition in vivo at 0.032 mg/kg: 6%
  inhibition in vivo at 0.128 mg/kg: 43%
[3]; 1 h, 60 min
  inhibition in vivo at 0.032 mg/kg: 17%
  inhibition in vivo at 0.128 mg/kg: 59%
[3]; 2 h, 120 min
  inhibition in vivo at 0.032 mg/kg: 48%
  inhibition in vivo at 0.128 mg/kg: 51%
[3]; 3 h, 180 min
  inhibition in vivo at 0.032 mg/kg: 45%
  inhibition in vivo at 0.128 mg/kg: 65%
[3]; 4 h, 240 min
  inhibition in vivo at 0.032 mg/kg: 45%
  inhibition in vivo at 0.128 mg/kg: 59%
[3]; 5 h, 300 min
  inhibition in vivo at 0.032 mg/kg: 21%
  inhibition in vivo at 0.128 mg/kg: 54%

— patent publication USRE30241E, “Esters of 3-(hydroxy or hydroxymethyl)-4-hydroxyphenyl aminomethyl ketones” (Sterling Drug Inc., priority 1970, dated 1980)
